Experimental data as given in publication PMC5433425 (PeerJ, 2017).
In brackets after ≈: the same amount, converted by molar mass. Several values for one entry are separate records, joined by “and”; a condition that tells them apart may be missing. Identical values can stand only once.

How the values were obtained:
E. coli AG100 [1] = experiment: Time-kill kinetics (CFU); assay type: cell-based, Escherichia coli; settings: AG100
Procedure: A drug-free control was included in the assay to monitor the normal growth of the strain. Cultures were sampled for CFU determination after 0, 1, 2, 3, 4, 5, 6, and 24 h of incubation at 37 °C with shaking. For CFU determination, 10-fold serial dilutions were made in a saline solution and 20 µl of each solution was placed onto the surface of a Mueller–Hinton agar plate. The colonies were counted after the incubation of the plates at 37 °C for 24 h. The limit of detection of the assay was 17 CFU/ml. Each assay was repeated at least twice.

[2] = tested on: Mycobacterium smegmatis mc2155 ATCC700084T; experiment: MIC, antibacterial specificity; assay type: cell-based
E. coli AG100 [3] = experiment: Intracellular ATP levels determination; assay type: cell-based, Escherichia coli
Procedure: The ATP levels were measured using the ATP Determination Kit (Invitrogen, Life Technologies, Paisley, UK) according to the manufacturer’s instructions. […] A drug-free control was included in the assay to monitor the normal growth of the strain. Aliquots of bacteria were collected at 0, 1, 2, 3, 4, 5, 6, and 24 h of incubation at 37 °C, with shaking, inactivated by heating and immediately deep frozen. […] CPZ and PAβN were included for comparison.

[4] = tested on: panel of selected bacterial species; experiment: Spectrum of activity, average MIC per bacterial group; assay type: cell-based

In the case of `CCCOc1ccc(-c2cc(OCCN3CCNCC3)c3ccccc3n2)cc1` [PQQ4R, 4-(2-(piperazin-1-yl)ethoxy)-2-(4-propoxyphenyl) quinolone], the “CFU count - absolute values” (E. coli AG100 [1]; 4xMIC, T24 (24 h)) is reported as 0, the “CFU count Log10” value (E. coli AG100 [1]; 4xMIC, T24 (24 h)) is reported as 0 and the “CFU count Mean” value (E. coli AG100 [1]; 4xMIC, T24 (24 h)) is reported as 0.0E+00. For the same compound, the “CFU count - Strain dilution” value (E. coli AG100 [1]; 8xMIC, T1 (1 h)) was 0, the “CFU count - absolute values” (E. coli AG100 [1]; 8xMIC, T1 (1 h)) was 0 and the “CFU count Log10” value (E. coli AG100 [1]; 8xMIC, T1 (1 h)) was 0. For the same compound, the “CFU count Mean” value (E. coli AG100 [1]; 8xMIC, T1 (1 h)) was 0.0E+00, the “CFU count - Strain dilution” value (E. coli AG100 [1]; 8xMIC, T2 (2 h)) was 0 and the “CFU count - absolute values” (E. coli AG100 [1]; 8xMIC, T2 (2 h)) was 0. The “CFU count Log10” value (E. coli AG100 [1]; 8xMIC, T2 (2 h)) was 0, the “CFU count Mean” value (E. coli AG100 [1]; 8xMIC, T2 (2 h)) was 0.0E+00 and the “CFU count - Strain dilution” value (E. coli AG100 [1]; 8xMIC, T3 (3 h)) was 0. For the same compound, the “CFU count - absolute values” (E. coli AG100 [1]; 8xMIC, T3 (3 h)) was 0, the “CFU count Log10” value (E. coli AG100 [1]; 8xMIC, T3 (3 h)) was 0 and the “CFU count Mean” value (E. coli AG100 [1]; 8xMIC, T3 (3 h)) was 0.0E+00. The “CFU count - Strain dilution” value (E. coli AG100 [1]; 8xMIC, T4 (4 h)) was 0, the “CFU count - absolute values” (E. coli AG100 [1]; 8xMIC, T4 (4 h)) was 0 and the “CFU count Log10” value (E. coli AG100 [1]; 8xMIC, T4 (4 h)) was 0. For the same compound, the “CFU count Mean” value (E. coli AG100 [1]; 8xMIC, T4 (4 h)) was 0.0E+00, the “CFU count - Strain dilution” value (E. coli AG100 [1]; 8xMIC, T5 (5 h)) was 0 and the “CFU count - absolute values” (E. coli AG100 [1]; 8xMIC, T5 (5 h)) was 0. For the same compound, the “CFU count Log10” value (E. coli AG100 [1]; 8xMIC, T5 (5 h)) was 0, the “CFU count Mean” value (E. coli AG100 [1]; 8xMIC, T5 (5 h)) was 0.0E+00 and the “CFU count - Strain dilution” value (E. coli AG100 [1]; 8xMIC, T6 (6 h)) was 0. The “CFU count - absolute values” (E. coli AG100 [1]; 8xMIC, T6 (6 h)) was 0, the “CFU count Log10” value (E. coli AG100 [1]; 8xMIC, T6 (6 h)) was 0 and the “CFU count Mean” value (E. coli AG100 [1]; 8xMIC, T6 (6 h)) was 0.0E+00. The “CFU count - Strain dilution” value (E. coli AG100 [1]; 8xMIC, T24 (24 h)) was 0, the “CFU count - absolute values” (E. coli AG100 [1]; 8xMIC, T24 (24 h)) was 0 and the “CFU count Log10” value (E. coli AG100 [1]; 8xMIC, T24 (24 h)) was 0. The “CFU count Mean” value (E. coli AG100 [1]; 8xMIC, T24 (24 h)) was 0.0E+00, the “CFU count Log10” value (E. coli AG100 [1]; MIC, T1 (1 h)) was 3.007 and the “CFU count Mean” value (E. coli AG100 [1]; MIC, T1 (1 h)) was 1.0E+03. The “CFU count Log10” value (E. coli AG100 [1]; MIC, T2 (2 h)) was 2.336, the “CFU count Mean” value (E. coli AG100 [1]; MIC, T2 (2 h)) was 2.2E+02 and the “CFU count Log10” value (E. coli AG100 [1]; MIC, T3 (3 h)) was 1.222. The “CFU count Mean” value (E. coli AG100 [1]; MIC, T3 (3 h)) was 1.7E+01, the “CFU count - Strain dilution” value (E. coli AG100 [1]; MIC, T4 (4 h)) was 0 and the “CFU count - absolute values” (E. coli AG100 [1]; MIC, T4 (4 h)) was 0. The “CFU count Log10” value (E. coli AG100 [1]; MIC, T4 (4 h)) was 0, the “CFU count Mean” value (E. coli AG100 [1]; MIC, T4 (4 h)) was 0.0E+00 and the “CFU count - Strain dilution” value (E. coli AG100 [1]; MIC, T5 (5 h)) was 0. The “CFU count - absolute values” (E. coli AG100 [1]; MIC, T5 (5 h)) was 0, the “CFU count Log10” value (E. coli AG100 [1]; MIC, T5 (5 h)) was 0 and the “CFU count Mean” value (E. coli AG100 [1]; MIC, T5 (5 h)) was 0.0E+00. For the same compound, the “CFU count - Strain dilution” value (E. coli AG100 [1]; MIC, T6 (6 h)) was 0, the “CFU count - absolute values” (E. coli AG100 [1]; MIC, T6 (6 h)) was 0 and the “CFU count Log10” value (E. coli AG100 [1]; MIC, T6 (6 h)) was 0. For the same compound, the “CFU count Mean” value (E. coli AG100 [1]; MIC, T6 (6 h)) was 0.0E+00, the “CFU count - Strain dilution” value (E. coli AG100 [1]; MIC, T24 (24 h)) was 0 and the “CFU count - absolute values” (E. coli AG100 [1]; MIC, T24 (24 h)) was 0. The “CFU count Log10” value (E. coli AG100 [1]; MIC, T24 (24 h)) was 0, the “CFU count Mean” value (E. coli AG100 [1]; MIC, T24 (24 h)) was 0.0E+00 and the “reduction in bacterial viability” value (E. coli AG100 [1]; half MIC) was “approx. 1 log”. The MIC [2] was 32 µg/mL (≈ 81.7 µM), the “ATP levels during the first 3 h of exposure” value (E. coli AG100 [3]; AG100, 320 µM (1/2 MIC) and 640 µM (MIC), same level as drug-free control) was “remained constant” and the “ATP production less than that of the drug-free control” value (E. coli AG100 [3]; AG100, half MIC (320 µM), 24 h of exposure) was 80%. The “ATP - luciferase:Lum” value (E. coli AG100 [3]; PQQ4R MIC, T1) was 438 and 716, the “ATP - luciferase:Lum” value (E. coli AG100 [3]; PQQ4R MIC, T2) was 453 and 417 and the “ATP - luciferase:Lum” value (E. coli AG100 [3]; PQQ4R MIC, T3) was 588 and 696. For the same compound, the “ATP - luciferase:Lum” value (E. coli AG100 [3]; PQQ4R MIC, T4) was 454 and 413, the “ATP - luciferase:Lum” value (E. coli AG100 [3]; PQQ4R MIC, T5) was 701 and 675 and the “ATP - luciferase:Lum” value (E. coli AG100 [3]; PQQ4R MIC, T6) was 445 and 588. The “ATP - luciferase:Lum” value (E. coli AG100 [3]; PQQ4R MIC, T24) was 545 and 530, the “ATP - luciferase:Lum” value (E. coli AG100 [3]; PQQ4R half MIC, T1) was 406 and 431 and the “ATP - luciferase:Lum” value (E. coli AG100 [3]; PQQ4R half MIC, T2) was 561 and 463. The “ATP - luciferase:Lum” value (E. coli AG100 [3]; PQQ4R half MIC, T3) was 373 and 549, the “ATP - luciferase:Lum” value (E. coli AG100 [3]; PQQ4R half MIC, T4) was 467 and 479 and the “ATP - luciferase:Lum” value (E. coli AG100 [3]; PQQ4R half MIC, T5) was 511 and 436. The “ATP - luciferase:Lum” value (E. coli AG100 [3]; PQQ4R half MIC, T6) was 560 and 587, the “ATP - luciferase:Lum” value (E. coli AG100 [3]; PQQ4R half MIC, T24) was 4358 and 4198 and the “average MIC” value ([4]; Gram-negative bacteria) was no less than 128 µg/mL. The “average MIC” value ([4]; Gram-positive bacteria) was 50 µg/mL and the “average MIC” value ([4]; acid-fast bacteria) was 32 µg/mL.
